pEC50: −log10 of the molar value.

In one data set the test system is HMEC. The data set is described as follows: CellTiterGlo. The class given is cell-based. Particulars: Homo sapiens, read-out: HMEC EC50.
The next data set deals with SUM149. The data set is described as follows: CellTiterGlo. The class given is cell-based. Particulars: SUM149, read-out: SUM149 EC50.
The test system of the next data set is MDA-MB-231. The experiment in a line: CellTiterGlo. The format is cell-based. To be noted: Homo sapiens, MDA-MB-231, read-out: MDA-MB-231 EC50. In general terms: Cellular ATP, detected with luciferase, serves as a proxy for viable cell number.
A short description of data set [1]: Solubility / precipitation. Particulars: 5–10 mM concentrations in DMSO, RT.
The test system of the next data set is T-47D. The data set is described as follows: CellTiterGlo. The class given is cell-based. To be noted: Homo sapiens, T47D, read-out: T-47D EC50.

Broadly, the pEC50 is the negative decadic logarithm of the EC50, by convention in mol/L. Take `CCCCCOC(=O)Nc1nc(=O)n([C@@H]2O[C@H](C)[C@@H](O)[C@H]2O)cc1F` [Capecitabine]: the results for the pEC50 with HMEC, with SUM149 and in the data set with MDA-MB-231 were 5.00, 5.30 and 5.30, respectively.
Take `COc1cccc2c1C(=O)c1c(O)c3c(c(O)c1C2=O)C[C@@](O)(C(=O)CO)C[C@@H]3O[C@H]1C[C@H](N)[C@H](O)[C@H](C)O1` [Doxorubicin]: the values for the pEC50 in the data set on HMEC, with SUM149 and in the data set on MDA-MB-231 were below 5.00, 6.00 and 6.00, respectively.
As to `CC(=O)O[C@H]1C(=O)[C@@]2(C)[C@H]([C@H](OC(=O)c3ccccc3)[C@]3(O)C[C@H](OC(=O)[C@H](O)[C@@H](NC(=O)c4ccccc4)c4ccccc4)C(C)=C1C3(C)C)[C@]1(OC(C)=O)CO[C@@H]1C[C@@H]2O` [Taxol], the pEC50 in the data set on HMEC was below 5.00; in the data set with SUM149 it was 8.00; in the data set with MDA-MB-231 it was 5.70.
Broadly, the solubility is the dissolved amount per volume that the medium holds. A high value points to much dissolved substance. `CC(C)[C@@H](C)/C=C/[C@@H](C)[C@H]1CC[C@@H]2[C@]1(C)CC[C@H]1[C@]23C=C[C@]2(C[C@@H](O)CC[C@]12C)OO3` [compound 3, ergosterol peroxide] showed a solubility in the data set “physchem” below 50 µM. Also, the “time after which precipitation occurs” value in data set [1] came to 168 h. The pEC50 in the data set with T-47D is 4.72; in the data set on HMEC, below 4.70; in the data set on SUM149, 5.05; with MDA-MB-231, 4.74.

(Values after publication PMC6541511 (Organic & biomolecular chemistry, 2019).)
